{"source": "patent US7582675B2", "about": "“Flavonoid compound and process for producing the same” (Pokka Corporation, priority 2001, dated 2009)", "key": {"solubility": {"test": "solubility", "assay_type": "physicochemical"}, "[1]": {"test": "radical scavenging ability measurement (DPPH), antioxidative activity in a hydrophilic solvent", "assay_type": "biochemical", "conditions": "samples 0.1, 1 and 10 μM, 20 minutes at room temperature, FIG. 1", "protocol": "The antioxidative activity in a hydrophilic solvent was measured for hesperidin (HE) and the isolated 8-hydroxyhesperetin (8OH-HE). It should be noted that antioxidative activity was measured in accordance with the radical scavenging ability measurement method described in Yamaguchi, et al., Biosci. Biotechnol. Biochem., 62, 1201-1204, 1998. More specifically, an 8OH-HE sample solution and HE sample solution were first prepared having concentrations of 0.1 μM, 1 μM and 10 μM by dissolving 8OH-HE or HE in ethanol. 200 μL of each sample solution was then mixed into 800 μL of 0.1 M Tris-HCl buffer (pH 7.4). 1 ml of 500 μM DPPH (1,1-diphenyl-2-picrylhydrazyl) in ethanol was added to each mixture to prepare reaction solutions. After adequately mixing the reaction solutions, they were allowed to react for 20 minutes in a dark location at room temperature. Next, 20 μL of each reaction solution was injected into an analytical HPLC system (LC-10A) using a microsyringe to analyze the DPPH concentration. The DPPH concentration was calculated from peak area of DPPH. […] Using 200 μL of a solution of ethanol only instead of the sample solutions for the control, the peak area of DPPH was similarly measured for the control by HPLC analysis. The radical scavenging activity (%) of 8OH-HE and HE were then determined according to the calculation formula indicated in Formula 1. […]"}, "[2]": {"test": "antioxidative action (general statement, no test named)", "conditions": "general statement in the description"}, "[3]": {"test": "lipid peroxidation of methyl linoleate by HPLC, antioxidative activity in a hydrophobic solvent", "assay_type": "biochemical", "conditions": "100 μM sample solutions, 40° C. for 18 hours, FIG. 2, listed as 8OH-HE", "protocol": "The antioxidative activity in a hydrophobic solvent was measured for hesperidin (HE), isolated 8-hydroxyhesperetin (8OH-HE) and α-tocopherol (Toc), a compound that is known to have a high level of antioxidative activity. Incidentally, antioxidative activity was measured by HPLC analysis using methyl linoleate as described in Terao J., et al., Lipids, 21(4), 255-260, 1986.\nMore specifically, an 8OH-HE sample solution, HE sample solution and Toc sample solution having concentrations of 100 μM were first prepared by dissolving 8OH-HE, HE and Toc in ethanol. 89 mg (100 μL) aliquots of methyl linoleate were each weighed into three small test tubes having an inner diameter of 14 mm. 100 μL of each sample solution was added to the three test tubes and mixed well to prepare mixtures.\nNext, each of the mixtures was dried by completely removing the solvent by placing each test tube in a vacuum desiccator in which pressure was reduced using a vacuum pump. […] The sum of the HPLC peak areas of 13-hydroperoxide and 9-hydroperoxide formed by the methyl linoleate was then determined.\nMoreover, HPLC analysis was also performed using 100 μL of a solution of ethanol only instead of the sample solutions for the control. The sum of the HPLC peak areas of the control was also determined. The degree of lipid peroxidation (%) of each sample was then determined from Formula 2. […]"}}, "note": "“Also recorded” adds a separate entry of the source."}
{"compound": "COc1ccc([C@@H]2CC(=O)c3c(O)cc(O[C@@H]4O[C@H](CO[C@@H]5O[C@@H](C)[C@H](O)[C@@H](O)[C@H]5O)[C@@H](O)[C@H](O)[C@H]4O)cc3O2)cc1O", "note": "[hesperidin, reference compound]", "values": [{"measurement": "saturation concentration (solubility limit) in the medium", "setting": "solubility; culture medium, varies with the amount of organic solvent added", "value": "≤ 0.3", "unit": "% by weight"}]}
{"compound": "COc1ccc(C2CC(=O)c3c(O)cc(O)c(O)c3O2)cc1O", "note": "(stereo not shown) [8-hydroxyhesperetin, 3′,5,7,8-tetrahydroxy-4′-methoxyflavonone]", "values": [{"measurement": "antioxidative activity (radical scavenging activity)", "setting": "[1]", "value": "much higher level of antioxidative activity than HE"}, {"measurement": "antioxidative action", "setting": "[2]", "value": "extremely high level of antioxidative action comparable to that of α-tocopherol"}, {"measurement": "antioxidative action", "setting": "[2]; listed as 8-Hydroxyhesperetin", "value": "remarkably high antioxidative action as compared with hesperidin and hesperetin"}, {"measurement": "antioxidative activity (degree of lipid peroxidation)", "setting": "[3]", "value": "much higher level of antioxidative activity than HE; also recorded: antioxidative activity that was comparable to α-tocopherol"}, {"measurement": "solubility in methanol, ethanol and dimethyl sulfoxide (DMSO)", "setting": "solubility; methanol, ethanol, DMSO", "value": "easily dissolves"}, {"measurement": "solubility in water", "setting": "solubility; water", "value": "somewhat soluble"}]}
